According to patent publication US8809341B2, “2,4-pyrimidinediamine compounds and uses as anti-proliferative agents” (Rigel Pharmaceuticals, Inc., priority 2003, dated 2014):

Columns and labels:
Format in all cases: cell-based
PC3 = experiment: in vitro antiproliferation assay, PC3 (prostate)
Protocol: (§1) The IC50 values of various compounds against a various different tumor cell lines were determined using standard in vitro antiproliferation assays. The tumor cell lines tested were as follows: A549 (lung); H1299 (lung), ACHN (kidney/p53 wt), CAKI (renal cell carcinoma), NCI-H460 (lung); HCT116 (colon/p53w0; HELA (cervix/p53 wt), HUH7 (liver/p53 wt), HUVEC (primary endothelial), LNCAP (prostate), HT-29 (colon); MCF-7 (breast); MCF-7 (breast/ER positive), MDA MB435S (breast); MDA MB231 (breast/ER negative), DU145 (prostate); BxPC-3 (pancreatic); SKOV-3 (ovarian); HepG2 (hepatic), NDHF primary normal human dermal fibroblast), SKMEL28 (breast/p53mut), SKMEL5 (breast/p53 wt), U20S (bone) and PC3 (prostate). […] A blank indicates the specified compound was not tested against the specified cell line.
(§2) Many of the compounds were tested against other cell lines. Their activity is reported in TABLE 15, below, where +”, “−”, “−/+” or “+/−” values are as described for TABLES 1-14. Where the cell line includes a value in a parenthetical, the value indicates the seeding density at which the assay was performed

A549 cells = experiment: in vitro antiproliferation assay, A549 (lung)
Outline: (§3)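 Standard in vitro antiproliferation assays on tumour cell lines, including A549 and H1299 (both lung); IC50 values determined.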

HCT116 = experiment: in vitro antiproliferation assay, HCT116 (colon); settings: HCT116 (colon); read-out: HCT116
Protocol: as §1, §2

H1299 cells = experiment: in vitro antiproliferation assay, H1299 (lung)
Outline: as §3

[1] = Table 5, in vitro antiproliferation, A549 (lung) cells
[2] = A549 (lung) cells, in vitro antiproliferation
[3] = A549 (lung) cells, antiproliferation
[4] = Table 7, in vitro antiproliferation, A549 (lung) cells
[5] = in vitro antiproliferation, A549 (lung) cells, Table 4, compounds with no designated stereochemistry tested as racemate
[6] = IC50 class against A549 (lung) tumor cells
[7] = IC50 class against H1299 (lung) tumor cells

| IC50 (PC3) [µM] | IC50 (A549 cells; [2]) [µM] | IC50 (A549 cells; [3]) [µM] | Structure (SMILES) | other results |
| --- | --- | --- | --- | --- |
| > 20 | – | – | O=C(COc1cccc(Nc2ncc(F)c(Nc3ccc4c(c3)OCCO4)n2)c1)NC1CCCCC1 [compound 508] | IC50 (A549 cells; [1]): > 20 µM |
| ≤ 20 | ≤ 20 | – | CNC(=O)COc1cccc(Nc2ncc(F)c(Nc3ccc(C)c(OC)c3)n2)c1 [compound 790] | – |
| > 20 | > 20 | – | CC(C)c1ccc(Nc2ncc(F)c(Nc3cccc(O)c3)n2)cc1 [compound 764] | – |
| > 20 | – | > 20 | Cc1cc(Nc2ncc(F)c(Nc3cccc(C(C)(C)C)c3)n2)cc(Cl)c1O [compound 959] | – |
| > 20 | – | ≤ 20 | Cc1cc(Nc2nc(Nc3cccc(OCC(=O)N4CCNCC4)c3)ncc2F)cc(C)c1O [compound 980] | – |
| > 20 | > 20 | – | CNC(=O)COc1cccc(Nc2ncc(F)c(Nc3cc(OC)cc(OC)c3)n2)c1 [compound 767] | – |
| > 20 | > 20 | – | Oc1cccc(Nc2ncc(F)c(Nc3ccc(OCCN4CCOCC4)cc3)n2)c1 [compound 746] | – |
| ≤ 20 | – | – | CNC(=O)COc1cccc(Nc2ncc(F)c(Nc3ccc4c(c3)OCCO4)n2)c1 [compound 516] | – |
| > 20 | – | – | CN(C)C(=O)c1cc2cc(Nc3ncc(F)c(Nc4cccc(O)c4)n3)ccc2o1 [compound 643] | IC50 (A549 cells; [4]): > 20 µM |
| ≤ 20 | – | – | COC(=O)c1cc2cc(Nc3ncc(F)c(Nc4ccc5c(c4)NC(=O)C(F)(F)O5)n3)ccc2o1 [compound 676] | IC50 (A549 cells; [4]): ≤ 20 µM |
| > 20 | > 20 | – | CC(C)Oc1ccc(Nc2nc(Nc3cccc(OCC(=O)O)c3)ncc2F)cc1 [compound 752] | – |
| > 20 | > 20 | – | CNC(=O)COc1cccc(Nc2ncc(F)c(Nc3ccc(C(C)(C)C)cc3)n2)c1 [compound 748] | – |
| ≤ 20 | ≤ 20 | – | COc1cc(Nc2ncc(F)c(Nc3cccc(O)c3)n2)cc(OC)c1 [compound 765] | – |
| > 20 | – | – | Fc1cnc(Nc2cccc(OCCN3CCOCC3)c2)nc1Nc1ccc2c(c1)OCCO2 [compound 500] | – |
| > 20 | – | – | COC(=O)COc1cccc(Nc2ncc(F)c(Nc3ccc4c(c3)OCCCO4)n2)c1 [compound 580] | IC50 (A549 cells; [1]): > 20 µM |
| ≤ 20 | – | > 20 | Cc1cc(Nc2nc(Nc3cccc(OCC(=O)N4CCOCC4)c3)ncc2F)cc(C)c1O [compound 948] | – |
| ≤ 20 | – | – | CNC(=O)COc1cccc(Nc2ncc(F)c(Nc3ccc4c(c3)NC(=O)C(C)O4)n2)c1 (racemic) [compound 256] | IC50 (A549 cells; [5]): ≤ 20 µM |
| ≤ 20 | – | > 20 | COc1c(C)cc(Nc2nc(Nc3cccc(OCCN4CCNCC4)c3)ncc2F)cc1C [compound 987] | – |
| > 20 | – | > 20 | COc1c(C)cc(Nc2nc(Nc3cccc(OCC(=O)N4CCNCC4)c3)ncc2F)cc1C [compound 986] | – |
| > 20 | – | > 20 | COC(=O)COc1cccc(Nc2ncc(F)c(Nc3cc(C)c(O)c(C)c3)n2)c1 [compound 982] | – |
| ≤ 20 | – | ≤ 20 | Cc1cc(Nc2nc(Nc3cccc(OCCN4CCOCC4)c3)ncc2F)cc(Cl)c1O [compound 957] | – |
| > 20 | – | < 20 | CC(C)(C)c1cccc(Nc2nc(Nc3cccc(OCC(=O)NCC(O)CO)c3)ncc2F)c1 (stereo not shown) [compound 961] | – |
| > 20 | – | – | CNC(=O)COc1ccc(Nc2ncc(F)c(Nc3ccc4c(c3)OCCO4)n2)cc1 [compound 501] | IC50 (A549 cells; [1]): > 20 µM |
| > 20 | – | – | O=C(COc1cccc(Nc2ncc(F)c(Nc3cccc(O)c3)n2)c1)N1CCNCC1 [compound 761] | – |
| ≤ 20 | – | – | CNC(=O)COc1cccc(Nc2ncc(F)c(Nc3ccc4c(n3)NC(=O)CO4)n2)c1 [compound 418] | – |

| IC50 (PC3) [µM] | IC50 (A549 cells; [2]) [µM] | IC50 (A549 cells; [3]) [µM] | Structure (SMILES) | other results |
| --- | --- | --- | --- | --- |
| ≤ 20 | – | – | O=C1COc2ccc(Nc3nc(Nc4cccc(O)c4)ncc3F)cc2N1 [compound 254] | IC50 (A549 cells; [5]): ≤ 20 µM |
| > 20 | > 20 | – | CC(C)(C)c1ccc(Nc2nc(Nc3cccc(OCC(=O)O)c3)ncc2F)cc1 [compound 749] | – |
| > 20 | < 20 | – | CNC(=O)COc1cccc(Nc2ncc(F)c(Nc3ccc(OC(C)C)cc3)n2)c1 [compound 751] | – |
| > 20 | – | – | CN(C)CCOc1cccc(Nc2ncc(F)c(Nc3ccc4c(c3)OCCO4)n2)c1 [compound 510] | IC50 (A549 cells; [1]): > 20 µM |
| > 20 | – | > 20 | COC(=O)COc1cccc(Nc2ncc(F)c(Nc3cc(C)c(OC)c(C)c3)n2)c1 [compound 985] | – |
| > 20 | – | – | CN(CCO)C(=O)COc1cccc(Nc2ncc(F)c(Nc3ccc4c(c3)OCCO4)n2)c1 [compound 509] | IC50 (A549 cells; [1]): > 20 µM |
| ≤ 20 | > 20 | – | O=C(COc1cccc(Nc2ncc(F)c(Nc3cccc(O)c3)n2)c1)N1CCOCC1 [compound 762] | – |
| ≤ 20 | – | – | CNC(=O)c1cc2cc(Nc3ncc(F)c(Nc4ccc(C(C)(C)C)cc4)n3)ccc2o1 [compound 642] | – |
| > 20 | – | > 20 | O=C(O)COc1cccc(Nc2ncc(F)c(Nc3cccc(O)c3)n2)c1 [compound 978] | – |
| ≤ 20 | > 20 | – | CC(C)(C)c1ccc(Nc2nc(Nc3cccc(OCCO)c3)ncc2F)cc1 [compound 750] | – |
| > 20 | > 20 | – | COc1ccc(Nc2nc(Nc3cccc(OCC(=O)NCC(O)CO)c3)ncc2F)cc1OC (stereo not shown) [compound 754] | – |
| > 20 | – | > 20 | Cc1cc(Nc2nc(Nc3cccc(OCC(=O)N4CCOCC4)c3)ncc2F)cc(Cl)c1O [compound 954] | – |
| ≤ 20 | > 20 | – | CNC(=O)COc1ccc(Nc2ncc(F)c(Nc3ccc(C(C)(C)C)cc3)n2)cc1 [compound 747] | – |
| > 20 | ≤ 20 | – | CNC(=O)COc1cccc(Nc2ncc(F)c(Nc3ccc(OC(F)(F)F)c(Cl)c3)n2)c1 [compound 699] | – |
| > 20 | – | > 20 | CNC(=O)COc1cccc(Nc2nc(Nc3cccc(C(C)(C)C)c3)ncc2F)c1 [compound 956] | – |
| – | – | – | COC(=O)N1CCN(c2ccc(Nc3ncc(F)c(NC4CC4)n3)cc2)CC1 [compound 104] | IC50 (A549 cells; [6]): ≤ 20 µM; IC50 (HCT116): > 20 µM; IC50 (H1299 cells; [7]): ≤ 20 µM |
| ≤ 20 | – | – | Oc1ccc(Nc2ncc(F)c(Nc3ccc(O)c(F)c3)n2)cc1F [compound 742] | – |
| > 20 | – | > 20 | CNC(=O)COc1cccc(Nc2ncc(F)c(Nc3cccc(C(C)(C)C)c3)n2)c1 [compound 960] | – |
| > 20 | – | > 20 | Fc1ccc(Nc2ncc(F)c(Nc3ccc(F)c(Cl)c3)n2)cc1Cl [compound 938] | – |
| ≤ 20 | – | – | CC(C)c1ccc(Nc2ncc(F)c(Nc3ccc4c(c3)OCCO4)n2)cc1 [compound 511] | IC50 (A549 cells; [1]): > 20 µM |
| – | – | – | CNC(=O)COc1cccc(Nc2ncc(F)c(Nc3ccc4c(c3)OCCO4)n2)c1 [compound 495] | IC50 (A549 cells; [1]): < 20 µM; IC50 (HCT116): ≤ 20 µM; IC50 (H1299 cells; Table 5, in vitro antiproliferation, H1299 (lung) cells): ≤ 20 µM |
| > 20 | > 20 | – | CNC(=O)COc1cccc(Nc2ncc(F)c(Nc3ccc(OC)c(OC)c3)n2)c1 [compound 753] | – |
| > 20 | – | ≤ 20 | Cc1cc(Nc2nc(Nc3cccc(OCC(=O)N4CCNCC4)c3)ncc2F)cc(Cl)c1O [compound 983] | – |
| > 20 | – | – | Fc1cnc(Nc2ccc(OCCN3CCOCC3)cc2)nc1Nc1ccc2c(c1)OCCO2 [compound 502] | IC50 (A549 cells; [1]): > 20 µM |
| – | – | – | COc1ccc(Nc2ncc(F)c(NC3CCC3)n2)cc1Cl [compound 112] | IC50 (A549 cells; [6]): ≤ 20 µM; IC50 (HCT116): ≤ 20 µM; IC50 (H1299 cells; [7]): ≤ 20 µM |
